{
  "source": "patent US20110046220A1",
  "about": "“PARABEN COMPOUNDS” (CENTRE NATIONAL DE LA RECHERCHE SCIENTIFIQUE, priority 2007, published 2011)",
  "type_in_all_cases": "cell-based",
  "key": {"[1]": {"system": "Staphylococcus aureus (ATCC 6538)", "assay": "MBC determination by subculturing wells with no visible growth onto agar plates", "details": "for MBC/MIC ratio / bactericidal or bacteriostatic effect (from MBC/MIC ratio): S. aureus; for MBC: Staphylococcus aureus, ATCC6538", "description": "MBCs were determined to estimate bacterial survival in wells with no visible growth after 24 h by subculturing onto agar plates to count the number of colony-forming-units (CFU/mL).\nIn order to determine whether the growth inhibition observed against S. aureus was relevant either of a bactericidal or a bacteriostatic effect, the ratio MBC/MIC was calculated."}, "[2]": {"system": "Staphylococcus aureus strain ATCC 6538", "assay": "MIC determination by twofold dilution in microplates against Staphylococcus aureus", "details": "for MIC: Staphylococcus aureus", "description": "Antimicrobial activity was tested by inhibition of growth of Gram positive bacteria Staphylococcus aureus strain ATCC 6538. All extracts and bacterial isolates from the sponge were screened for this antibacterial activity. Extracts and bacterial strains were also tested against gram negative gamma-proteobacteria (including Vibrios) and alpha-proteobacteria (Rhodobacterales), against Gram positive Bacillales (including Bacillus sp.) and against the yeast Candida albicans.\nMICs of each of the compounds 1-9 according to the invention and of commercial methyl- and propyl parabens of the prior art were determined by a twofold dilution method from an initial 100 μg/mL concentration. […] Microplates were incubated for 24 hours at 30° C. with shaking (500 rpm) and optical density at 600 nm was read to estimate bacterial growth. The methyl- and propyl parabens of the prior art were obtained from the company Interchimie in Bobigny, France. […]\nThe results are reported in the following table 3 in which the MIC is reported in μg/ml and expressed, as in table 1, as the interval a-b, where a is the highest concentration tested at which microorganism are growing and b the lowest concentration that causes 100% growth inhibition."}, "[3]": {"system": "Microbulbifer sp. strain L4-N2", "assay": "Antibiotic resistance/sensitivity of bacteria of the strain L4-N2", "details": "kanamycine 30UI; ceftazidime 30 μg", "description": "Bacteria of the strain L4-N2 are gram negative, aerobic, rod-shaped, and approximately 1 μm wide by 5 to 7 μm long. They form smooth, convex and mucoid colonies, and produce a non-diffusible brown pigment. They use glucose and display beta-galactosidase, catalase, and gelatinase activities. They are resistant to ampicillin, penicillin and oxacillin and sensitive to kanamycine (30UI) and ceftazidime (30 μg)."}, "[4]": {"details": "S. aureus ATCC 6538, lowest concentration yielding colony counts <0.1% of the initial inoculum, read-out: MBC"}, "[5]": {"details": "ATCC6538, S. aureus ATCC 6538, 24 hours at 30° C., interval a-b (a highest concentration with growth, b lowest with 100% growth inhibition), triplicate, read-out: MIC"}, "[6]": {"details": "ATCC6538, S. aureus ATCC 6538, 24 hours at 30° C., interval a-b, triplicate, read-out: MIC"}},
  "note": "Where “and” joins values, the source holds several entries; their conditions need not be identical. Identical values can stand only once. Like-named read-outs stand apart in the source and are kept apart here.",
  "data": [
    {"compound": "CCOC(=O)c1ccc(O)cc1", "note": "[Compound 1, 4-Hydroxy-benzoic acid ethyl ester]", "values": [
      {"measurement": "MBC/MIC ratio", "setting": "[1]", "result": ">16"},
      {"measurement": "MBC", "setting": "[1]; [4]", "result": "> 100", "unit": "µg/mL"},
      {"measurement": "MIC", "setting": "[2]; [5]", "result": "> 602", "unit": "µM"},
      {"measurement": "MIC", "setting": "[2]; [6]", "result": "> 100", "unit": "µg/mL"}
    ]},
    {"compound": "CCCCOC(=O)c1ccc(O)cc1", "note": "[Compound 2, 4-Hydroxy-benzoic acid butyl ester]", "values": [
      {"measurement": "MBC/MIC ratio", "setting": "[1]", "result": ">16"},
      {"measurement": "MBC", "setting": "[1]", "result": "> 100", "unit": "µg/mL"},
      {"measurement": "MIC", "setting": "[2]; ATCC6538, 24 h", "result": "129 µM to 258 µM and 25 µg/mL to 50 µg/mL"}
    ]},
    {"compound": "CCCCCCCCOC(=O)c1ccc(O)cc1", "note": "[Compound 3, 4-Hydroxy-benzoic acid octyl ester]", "values": [
      {"measurement": "MBC/MIC ratio", "setting": "[1]", "result": 2},
      {"measurement": "bactericidal or bacteriostatic effect (from MBC/MIC ratio)", "setting": "[1]", "result": "bactericidal (If MBC/MIC is less than 4, the compound is bactericidal)"},
      {"measurement": "MBC", "setting": "[1]; [4]", "result": "50 to 100", "unit": "µg/mL"},
      {"measurement": "MIC", "setting": "[2]; [5]", "result": "100 to 200", "unit": "µM"},
      {"measurement": "MIC", "setting": "[2]; [6]", "result": "25 to 50", "unit": "µg/mL"}
    ]},
    {"compound": "CCCCCCCCCCOC(=O)c1ccc(O)cc1", "note": "[Compound 4, 4-Hydroxy-benzoic acid decyl ester]", "values": [
      {"measurement": "MBC/MIC ratio", "setting": "[1]", "result": 16},
      {"measurement": "bactericidal or bacteriostatic effect (from MBC/MIC ratio)", "setting": "[1]", "result": "bacteriostatic (if MBC/MIC is between 8 and 16 and above 16, the compound is bacteriostatic)"},
      {"measurement": "MBC", "setting": "[1]; [4]", "result": "12.5 to 25", "unit": "µg/mL"},
      {"measurement": "MIC", "setting": "[2]; [5]", "result": "2.8 to 5.6", "unit": "µM"},
      {"measurement": "MIC", "setting": "[2]; [6]", "result": "0.78 to 1.56", "unit": "µg/mL"}
    ]},
    {"compound": "CCCCCCCC(O)CCOC(=O)c1ccc(O)cc1", "note": "(stereo not shown) [Compound 5, 4-Hydroxy-benzoic acid 3-hydroxy-decyl ester]", "values": [
      {"measurement": "MBC/MIC ratio", "setting": "[1]", "result": ">16"},
      {"measurement": "MBC", "setting": "[1]; [4]", "result": "> 100", "unit": "µg/mL"},
      {"measurement": "MIC", "setting": "[2]; [5]", "result": "85 to 170", "unit": "µM"},
      {"measurement": "MIC", "setting": "[2]; [6]", "result": "25 to 50", "unit": "µg/mL"}
    ]},
    {"compound": "CC(C)CCCCCCCCOC(=O)c1ccc(O)cc1", "note": "[Compound 6]", "values": [
      {"measurement": "MBC/MIC ratio", "setting": "[1]", "result": 2},
      {"measurement": "bactericidal or bacteriostatic effect (from MBC/MIC ratio)", "setting": "[1]", "result": "bactericidal (If MBC/MIC is less than 4, the compound is bactericidal)"},
      {"measurement": "MBC", "setting": "[1]; [4]", "result": "25 to 50", "unit": "µg/mL"},
      {"measurement": "MIC", "setting": "[2]; [5]", "result": "42.8 to 85.6", "unit": "µM"},
      {"measurement": "MIC", "setting": "[2]; [6]", "result": "12.5 to 25", "unit": "µg/mL"}
    ]},
    {"compound": "CC(C)CCCCCC(O)CCOC(=O)c1ccc(O)cc1", "note": "(stereo not shown) [Compound 7]", "values": [
      {"measurement": "MBC/MIC ratio", "setting": "[1]", "result": 2},
      {"measurement": "bactericidal or bacteriostatic effect (from MBC/MIC ratio)", "setting": "[1]", "result": "bactericidal (If MBC/MIC is less than 4, the compound is bactericidal)"},
      {"measurement": "MBC", "setting": "[1]; [4]", "result": "25 to 50", "unit": "µg/mL"},
      {"measurement": "MIC", "setting": "[2]; [5]", "result": "40.5 to 81.1", "unit": "µM"},
      {"measurement": "MIC", "setting": "[2]; [6]", "result": "12.5 to 25", "unit": "µg/mL"}
    ]},
    {"compound": "CCCCCCCCCCCCOC(=O)c1ccc(O)cc1", "note": "[Compound 8, 4-Hydroxy-benzoic acid dodecyl ester]", "values": [
      {"measurement": "MBC/MIC ratio", "setting": "[1]", "result": ">16"},
      {"measurement": "MBC", "setting": "[1]; [4]", "result": "> 100", "unit": "µg/mL"},
      {"measurement": "MIC", "setting": "[2]; [5]", "result": "81.6 to 163", "unit": "µM"},
      {"measurement": "MIC", "setting": "[2]; [6]", "result": "25 to 50", "unit": "µg/mL"}
    ]},
    {"compound": "CCCCCC/C=C/CCCCOC(=O)c1ccc(O)cc1", "note": "[Compound 9, 4-Hydroxy-benzoic acid dodec-5-enyl ester]", "values": [
      {"measurement": "MBC/MIC ratio", "setting": "[1]", "result": 8},
      {"measurement": "bactericidal or bacteriostatic effect (from MBC/MIC ratio)", "setting": "[1]", "result": "bacteriostatic (if MBC/MIC is between 8 and 16 and above 16, the compound is bacteriostatic)"},
      {"measurement": "MBC", "setting": "[1]; [4]", "result": "50 to 100", "unit": "µg/mL"},
      {"measurement": "factor of enhancement of antimicrobial activity by unsaturation of the alkyl chain (compound 9 vs compound 8)", "setting": "[2]; S. aureus, compared MIC values", "result": 4},
      {"measurement": "MIC", "setting": "[2]; [5]", "result": "20.5 to 41.1", "unit": "µM"},
      {"measurement": "MIC", "setting": "[2]; [6]", "result": "6.25 to 12.5", "unit": "µg/mL"}
    ]},
    {"compound": "COC(=O)c1ccc(O)cc1", "note": "[Methyl paraben, reference compound]", "values": [
      {"measurement": "MBC", "setting": "[1]; [4]", "result": "> 100", "unit": "µg/mL"},
      {"measurement": "MIC", "setting": "[2]; [5]", "result": "329 to 658", "unit": "µM"},
      {"measurement": "MIC", "setting": "[2]; [6]", "result": "50 to 100", "unit": "µg/mL"}
    ]},
    {"compound": "CCCOC(=O)c1ccc(O)cc1", "note": "[Propyl paraben, reference compound]", "values": [
      {"measurement": "MBC", "setting": "[1]; [4]", "result": "> 100", "unit": "µg/mL"},
      {"measurement": "MIC", "setting": "[2]; [5]", "result": "278 to 556", "unit": "µM"},
      {"measurement": "MIC", "setting": "[2]; [6]", "result": "50 to 100", "unit": "µg/mL"}
    ]},
    {"compound": "CC1(C)S[C@@H]2[C@H](NC(=O)[C@H](N)c3ccccc3)C(=O)N2[C@H]1C(=O)O", "note": "[ampicillin]", "values": [
      {"measurement": "resistance or sensitivity of strain L4-N2 bacteria to the antibiotic", "setting": "[3]", "result": "resistant"}
    ]},
    {"compound": "CC(C)(O/N=C(\\C(=O)N[C@@H]1C(=O)N2C(C(=O)[O-])=C(C[n+]3ccccc3)CS[C@H]12)c1csc(N)n1)C(=O)O", "note": "[ceftazidime]", "values": [
      {"measurement": "resistance or sensitivity of strain L4-N2 bacteria to the antibiotic", "setting": "[3]", "result": "sensitive"}
    ]},
    {"compound": "NC[C@H]1O[C@H](O[C@H]2[C@H](O)[C@@H](O[C@H]3O[C@H](CO)[C@@H](O)[C@H](N)[C@H]3O)[C@H](N)C[C@@H]2N)[C@H](O)[C@@H](O)[C@@H]1O", "note": "[kanamycine]", "values": [
      {"measurement": "resistance or sensitivity of strain L4-N2 bacteria to the antibiotic", "setting": "[3]", "result": "sensitive"}
    ]},
    {"compound": "Cc1onc(-c2ccccc2)c1C(=O)N[C@@H]1C(=O)N2[C@@H]1SC(C)(C)[C@@H]2C(=O)O", "note": "[oxacillin]", "values": [
      {"measurement": "resistance or sensitivity of strain L4-N2 bacteria to the antibiotic", "setting": "[3]", "result": "resistant"}
    ]},
    {"compound": "penicillin", "values": [
      {"measurement": "resistance or sensitivity of strain L4-N2 bacteria to the antibiotic", "setting": "[3]", "result": "resistant"}
    ]}
  ]
}
